We go through one molecule from patent US12599554B2, “Pharmaceutical formulations comprising tadalafil” (KYDES PHARMACEUTICALS, LLC, priority 2020, dated 2026).

For series [1] the following is noted: cited from earlier work.
For series [2] the following is noted: cited from earlier work. The source holds these as a separate data set.
Series [3] is described as follows: Solubility of tadalafil in aqueous media and solvents; precipitation on adding water. The class given is physicochemical. From the text:
Tadalafil is soluble in 2-pyrollidone, but the use of 2-pyrollidone as a solvent is limited by color formation, unpalatable taste, and incompatibility with plastic components of metered-dose delivery systems. […] Compatibility with the pumps was improved with water in an amount of at least 10% weight in volume.

In the case of `CN1CC(=O)N2[C@H](c3ccc4c(c3)OCO4)c3[nH]c4ccccc4c3C[C@@H]2C1=O` [Tadalafil, (2R,8R)-2-(1,3-benzodioxol-5-yl)-6-methyl-3,6,17-triazatetracyclo[8.7.0.0^3,8.0^11,16]heptadeca-1(10),11,13,15-tetraene-4,7-dione], in series [1], the bioavailability in humans is listed as 80%. Moreover, the “solubility in aqueous media” value in series [2] is “insoluble”. Besides, the “solubility in 2-pyrollidone” value in series [3] (2-pyrollidone) is recorded as “soluble”. In series [3] (propylene carbonate), the “solubility in propylene carbonate” value is listed as “soluble”.
